In patent US8598154B2 (Corcept Therapeutics, Inc., priority 2010, dated 2013):

Columns and labels:
[1] = biological target: T1, Human Recombinant Glucocorticoid Receptor (Homo sapiens, UniProt P04150); assay: Glucocorticoid receptor binding displacement assay with 3H-dexamethasone; conditions: displacement of 2.5 nM 3H-dexamethasone; Ki from IC50 by Cheng-Prusoff; read-out: GR Binding Ki
T1 construct: This GR was a full-length steroid hormone receptor likely to be associated with heat-shock and other endogenous proteins; host or cells: baculovirus-infected insect cells
T1 sequence (P04150 1-777): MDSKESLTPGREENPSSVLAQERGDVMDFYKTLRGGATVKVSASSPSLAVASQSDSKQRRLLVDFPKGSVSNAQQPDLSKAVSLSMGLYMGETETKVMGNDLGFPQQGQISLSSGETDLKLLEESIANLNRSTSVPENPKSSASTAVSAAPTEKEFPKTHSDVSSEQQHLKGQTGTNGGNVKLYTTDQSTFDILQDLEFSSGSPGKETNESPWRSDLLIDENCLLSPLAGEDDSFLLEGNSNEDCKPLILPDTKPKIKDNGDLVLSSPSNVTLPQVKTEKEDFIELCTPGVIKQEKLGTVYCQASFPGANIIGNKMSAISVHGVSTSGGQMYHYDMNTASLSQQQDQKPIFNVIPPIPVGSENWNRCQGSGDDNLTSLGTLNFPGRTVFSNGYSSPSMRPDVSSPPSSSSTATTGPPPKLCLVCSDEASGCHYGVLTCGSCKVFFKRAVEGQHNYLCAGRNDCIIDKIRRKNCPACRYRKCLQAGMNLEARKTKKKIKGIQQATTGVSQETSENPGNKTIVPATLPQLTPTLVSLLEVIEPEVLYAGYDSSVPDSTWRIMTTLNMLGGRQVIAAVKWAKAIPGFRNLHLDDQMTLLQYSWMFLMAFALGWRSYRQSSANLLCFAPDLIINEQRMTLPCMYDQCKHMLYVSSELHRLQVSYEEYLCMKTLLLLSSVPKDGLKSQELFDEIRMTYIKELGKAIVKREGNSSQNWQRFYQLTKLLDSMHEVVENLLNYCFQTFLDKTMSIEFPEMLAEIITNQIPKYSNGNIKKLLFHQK

[2] = biological target: T2, glucocorticoid receptors (GR) in SW1353/MMTV-5 cells (Homo sapiens, UniProt P04150); assay: GR functional assay using SW1353/MMTV-5 cells (MMTV-luciferase reporter); assay type: cell-based
T2 construct: contains endogenous glucocorticoid receptors; endogenous in cells; host or cells: SW1353/MMTV-5 (human chondrosarcoma, stably transfected with the pMAMneo-Luc reporter only)
T2 sequence (P04150 1-777): T1 sequence (P04150 1-777)
Outline: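 Human chondrosarcoma line stably carrying firefly luciferase under an MMTV LTR glucocorticoid-responsive element, with endogenous GR. Cells were plated in 96-well plates and held 24 hrs in geneticin-free medium without CO2.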

SMILES | Ki [1] | Ki [2]
Cc1cc(COC(=O)[C@]23Cc4cnn(-c5ccc(F)cc5)c4C=C2CCN(S(=O)(=O)c2ccc(N4CC[C@@H](F)C4)nc2)C3)no1 [Example 60, (R)-1-(4-Fluorophenyl)-6-[6-((R)-3-fluoropyrrolidin-1-yl)-pyridine-3-sulfonyl]-1,4,5,6,7,8-hexahydro-1,2,6-triaza-cyclopenta[b]naphthalene-4a-carboxylic acid 5-methylisoxazol-3-ylmethyl ester] | 0.5 to 1 nM | 10 to 50 nM
O=S(=O)(c1ccc(N2CC[C@@H](F)C2)nc1)N1CCC2=Cc3c(cnn3-c3ccc(F)cc3)C[C@]2(COCCO)C1 [Example 34, 2-{(R)-1-(4-Fluorophenyl)-6-[6-((R)-3-fluoropyrrolidin-1-yl)-pyridine-3-sulphonyl]-1,4,5,6,7,8-hexahydro-1,2,6-triaza-cyclopenta[b]naphthalene-4a-ylmethoxy}-ethanol] | > 1 nM | > 50 nM
COC[C@]12Cc3cnn(-c4ccc(F)cc4)c3C=C1CCN(S(=O)(=O)c1cncc(N3CC[C@@H](F)C3)c1)C2 [Example 40, (R)-1-(4-Fluorophenyl)-6-[5-((R)-3-fluoropyrrolidin-1-yl)-pyridine-3-sulfonyl]-4a-methoxymethyl-4,4a,5,6,7,8-hexahydro-1H-1,2,6-triaza-cyclopenta[b]naphthalene] | > 1 nM | < 10 nM
CCOC[C@]12Cc3cnn(-c4ccc(F)cc4)c3C=C1CCN(S(=O)(=O)c1ccc(N3CCC3)nc1)C2 [Example 6, (R)-6-[[6-(1-Azetidinyl)-3-pyridinyl]sulfonyl]-4a-ethoxymethyl-1-(4-fluorophenyl)-1,4,7,8-tetrahydro-1,2,6-triazacyclopenta[b]naphthalene] | 0.5 to 1 nM | 10 to 50 nM
COc1ccc(S(=O)(=O)N2CCC3=Cc4c(cnn4-c4ccc(F)cc4)C[C@]3(C(=O)OCC3CCC3)C2)cn1 [Example 59, (R)-1-(4-Fluorophenyl)-6-(6-methoxypyridine-3-sulfonyl)-1,4,5,6,7,8-hexahydro-1,2,6-triaza-cyclopenta[b]naphthalene-4a-carboxylic acid cyclobutylmethyl ester] | 0.5 to 1 nM | < 10 nM
O=S(=O)(c1ccc(N2CC[C@@H](O)C2)nc1)N1CCC2=Cc3c(cnn3-c3ccc(F)cc3)C[C@]2(COCC2CC2)C1 [Example 28, (R)-1-{5-[(R)-4a-Cyclopropylmethoxymethyl-1-(4-fluorophenyl)-1,4,4a,5,6,7,8-hexahydro-1,2,6-triaza-cyclopenta[b]naphthalene-6-sulfonyl]pyridine-2-yl}-pyrrolidine-3-ol] | < 0.5 nM | 10 to 50 nM
O=S(=O)(c1ccc(N2CC[C@@H](F)C2)nc1)N1CCC2=Cc3c(cnn3-c3ccc(F)cc3)C[C@]2(COCC2CC2)C1 [Example 26, (R)-4a-Cyclopropylmethoxymethyl-1-(4-fluorophenyl)-6-(6-((R)-3-fluoro-pyrrolidin-1-yl)-pyridine-3-sulfonyl)-4,4a,5,6,7,8-hexahydro-1H-1,2,6-triaza-cyclopenta[b]naphthalene] | 0.5 to 1 nM | < 10 nM
O=C(OC1CCC1)[C@]12Cc3cnn(-c4ccc(F)cc4)c3C=C1CCN(S(=O)(=O)c1ccc(N3CCOCC3)nc1)C2 [Example 50, (R)-1-(4-Fluorophenyl)-6-(6-morpholin-4-yl-pyridine-3-sulfonyl]-1,4,5,6,7,8-hexahydro-1,2,6-triaza-cyclopenta[b]naphthalene-4a-carboxylic acid cyclobutyl ester] | 0.5 to 1 nM | < 10 nM
O=S(=O)(c1ccc(N2CCC2)nc1)N1CCC2=Cc3c(cnn3-c3ccc(F)cc3)C[C@]2(COC(F)F)C1 [Example 17, (R)-6-(6-Azetidin-1-ylpyridine-3-sulfonyl)-4a-difluoromethoxymethyl-1-(4-fluorophenyl)-4,4a,5,6,7,8-hexahydro-1H-1,2,6-triazacyclopenta[b]naphthalene] | > 1 nM | 10 to 50 nM
COC[C@]12Cc3cnn(-c4ccc(F)cc4)c3C=C1CCN(S(=O)(=O)c1ccnc(N3CC[C@H](O)C3)c1)C2 [Example 44, (S)-1-{4-[(R)-1-(4-Fluorophenyl)-4a-methoxymethyl-1,4,4a,5,6,7,8-hexahydro-1,2,6-triaza-cyclopenta[b]naphthalene-6-sulfonyl]-pyridin-2-yl}-pyrrolidin-3-ol] | > 1 nM | > 50 nM
COC[C@]12Cc3cnn(-c4ccc(F)cc4)c3C=C1CCN(S(=O)(=O)c1cncc(N3CC(O)C3)c1)C2 [Example 36, 1-{5-[(R)-1-(4-Fluorophenyl)-4a-methoxymethyl-1,4,4a,5,6,7,8-hexahydro-1,2,6-triaza-cyclopenta[b]naphthalene-6-sulfonyl]-pyridin-3-yl}-azetidin-3-ol] | 0.5 to 1 nM | > 50 nM
COC[C@]12Cc3cnn(-c4ccc(F)cc4)c3C=C1CCN(S(=O)(=O)c1ccc(N3CCNCC3)nc1)C2 [Example 18, (R)-1-(4-Fluorophenyl)-4a-methoxymethyl-6-[[6-(1-piperazinyl)-3-pyridinyl]sulfonyl]-1,4,7,8-tetrahydro-1,2,6-triazacyclopenta[b]naphthalene] | > 1 nM | > 50 nM
CCOC(=O)[C@]12Cc3cnn(-c4ccc(F)cc4)c3C=C1CCN(S(=O)(=O)c1ccc(N3CCOCC3)nc1)C2 [Example 48, (R)-1-(4-Fluorophenyl)-6-(6-morpholin-4-yl-pyridine-3-sulfonyl]-1,4,5,6,7,8-hexahydro-1,2,6-triaza-cyclopenta[b]naphthalene-4a-carboxylic acid ethyl ester] | 0.5 to 1 nM | 10 to 50 nM
CCOC[C@]12Cc3cnn(-c4ccc(F)cc4)c3C=C1CCN(S(=O)(=O)c1ccc(NC)nc1)C2 [Example 7, (R)-4a-Ethoxymethyl-1-(4-fluorophenyl)-6-[[6-methylamino-3-pyridinyl]sulfonyl]-1,4,7,8-tetrahydro-1,2,6-triazacyclopenta[b]naphthalene] | < 0.5 nM | 10 to 50 nM
